Results: PubChem BioAssay (NCI)
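48-hour exposure; five concentrations; linearly interpolated endpoints. The concentration for full growth arrest is given as TGI.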

Assays:
Experiment in all cases: DTP human tumour cell line panel, 48 h
786-0 renal = test system: 786-0 renal
A498 renal = test system: A498 renal
A549 NSCLC = test system: A549 NSCLC
ACHN renal = test system: ACHN renal
BT-549 breast = test system: BT-549 breast
CAKI-1 renal = test system: CAKI-1 renal
CCRF-CEM leukemia = test system: CCRF-CEM leukemia
COLO 205 colon = test system: COLO 205 colon
DU-145 prostate = test system: DU-145 prostate
EKVX NSCLC = test system: EKVX NSCLC
HCC-2998 colon = test system: HCC-2998 colon
HCT-116 colon = test system: HCT-116 colon
HCT-15 colon = test system: HCT-15 colon
HL-60(TB) leukemia = test system: HL-60(TB) leukemia
HOP-62 NSCLC = test system: HOP-62 NSCLC
HOP-92 NSCLC = test system: HOP-92 NSCLC
HT29 colon = test system: HT29 colon
IGROV1 ovarian = test system: IGROV1 ovarian
K-562 leukemia = test system: K-562 leukemia
KM12 colon = test system: KM12 colon
LOX IMVI melanoma = test system: LOX IMVI melanoma
M14 melanoma = test system: M14 melanoma
MALME-3M melanoma = test system: MALME-3M melanoma
MCF7 breast = test system: MCF7 breast
MDA-MB-231 breast = test system: MDA-MB-231 breast
MDA-MB-435 = test system: MDA-MB-435
MDA-N = test system: MDA-N
MOLT-4 leukemia = test system: MOLT-4 leukemia
NCI-H226 lung = test system: NCI-H226 lung
NCI-H23 lung = test system: NCI-H23 lung
NCI-H460 lung = test system: NCI-H460 lung
NCI-H522 lung = test system: NCI-H522 lung
NCI/ADR-RES ovarian = test system: NCI/ADR-RES ovarian
OVCAR-3 ovarian = test system: OVCAR-3 ovarian
OVCAR-4 ovarian = test system: OVCAR-4 ovarian
OVCAR-5 ovarian = test system: OVCAR-5 ovarian
OVCAR-8 ovarian = test system: OVCAR-8 ovarian
PC-3 prostate = test system: PC-3 prostate
RPMI-8226 leukemia = test system: RPMI-8226 leukemia
RXF 393 renal = test system: RXF 393 renal
SF-268 CNS = test system: SF-268 CNS
SF-295 CNS = test system: SF-295 CNS
SF-539 CNS = test system: SF-539 CNS
SK-MEL-2 melanoma = test system: SK-MEL-2 melanoma
SK-MEL-28 melanoma = test system: SK-MEL-28 melanoma
SK-MEL-5 melanoma = test system: SK-MEL-5 melanoma
SK-OV-3 ovarian = test system: SK-OV-3 ovarian
SN12C renal = test system: SN12C renal
SNB-19 CNS = test system: SNB-19 CNS
SNB-75 CNS = test system: SNB-75 CNS
SW-620 colon = test system: SW-620 colon
T-47D breast = test system: T-47D breast
TK-10 renal = test system: TK-10 renal
U251 CNS = test system: U251 CNS
UACC-257 melanoma = test system: UACC-257 melanoma
UACC-62 melanoma = test system: UACC-62 melanoma
UO-31 renal = test system: UO-31 renal
SR leukemia = test system: SR leukemia

Measured: TGI

COc1ccn(CC(=O)c2cc3ccccc3[nH]2)c(=O)n1
not listed: SR leukemia
> 100 µM: all other assays above

NC(Cc1ccc(O)c(O)c1)P(=O)(O)O (centres undefined)
95.7 µM: T-47D breast
20.1 µM: NCI-H522 lung
68.6 µM: CCRF-CEM leukemia
42 µM: K-562 leukemia
45.7 µM: HL-60(TB) leukemia
43.2 µM: SW-620 colon
not listed: COLO 205 colon | EKVX NSCLC | HOP-62 NSCLC | LOX IMVI melanoma | MCF7 breast | SK-OV-3 ovarian
> 100 µM: all other assays above

COc1ccc2c(C)cc(C)nc2n1
not listed: NCI-H226 lung | SF-268 CNS | SF-539 CNS
> 100 µM: all other assays above
